Broadly, the IC50 is the concentration that gives 50% inhibition. A high value points to a need for much substance. In general, % Inhibition refers to the percentage by which the read-out fell short of the control. A lower % Inhibition goes with a weak effect.

The text below walks through data of patent US5441974A, “Phenyl amidines lactones useful as platelet aggregation inhibitors” (G. D. Searle & Co., priority 1994, dated 1995).

Structures are written as SMILES. Structures can show the parent of a compound that is named as a salt. Some results are limits rather than exact numbers.

The experiment relates to platelet aggregation. Briefly: In-Vitro Platelet Aggregation in PRP (ADP-induced). In kind it is cell-based. The settings on record: dog platelet-rich plasma, ADP 50 μm final; for IC50: 1 min preincubation at 37° C.; for % Inhibition: Test Concentration 1 × 10^-5. As to the method: Compounds of the invention were evaluated by an in vivo assay to determine compound activity as an inhibitors of platelet aggregation.
Healthy male or female dogs were fasted for 8 hours prior to drawing blood; then 30 mL whole blood was collected using a butterfly needle and 30 cc plastic syringe with 3 ml of 0.129M buffered sodium citrate (3.8%). The syringe was rotated carefully as blood was drawn to mix the citrate. Platelet-rich plasma (PRP) was prepared by centrifugation at 975×g for 3.17 minutes at room temperature, allowing the centrifuge to coast to a stop without braking. The PRP was removed from the blood with a plastic pipette and placed in a plastic capped, 50 ml Corning conical sterile centrifuge tube which was held at room temperature. Platelet poor plasma (PPP) was prepared by centrifuging the remaining blood at 2000×g for 15 minutes at room temperature allowing the centrifuge to coast to a stop without braking. The PRP was adjusted with PPP to a count of 2-3×10^8 platelets per ml. 400 μL of the PRP preparation and 50 μL of the compound to be tested or saline were preincubated for 1 minute at 37° C. in a BioData aggregometer (BioData, Horsham, Pa.). 50 μL of adenosine 5'diphosphate (ADP) (50 μm final concentration) was added to the cuvettes and the aggregation was monitored for 1 minute. All compounds are tested in duplicate. Results are calculated as follows:
Percent of control=[(maximal OD minus initial OD of compound) divided by (maximal OD minus initial OD of control saline)]×100. The % inhibition=100 - (percent of control).

Setting [1] is: Canis lupus familiaris, Platelet.

Turning to `N=C(N)c1ccc(CCCCC(=O)N[C@H]2CC(=O)OC2c2nccs2)cc1` (single isomer, unassigned; diastereoisomer a) [Example 7, 4-(aminoiminomethyl)-N-[tetrahydro-5-oxo-2-(2-thiazolyl)-3S-furanyl]benzene pentanamide, bis(trifluoroacetate) (diastereoisomer A)], the IC50 is over 10000 nM. As for `N=C(N)c1ccc(CCCCC(=O)NC2CC(=O)Oc3ccccc32)cc1` (racemic) [Example 2, (±)-4-(Aminoiminomethyl)-N-(3,4-dihydro-2-oxo-2H-1-benzopyran-4-yl) benzenepentanamide], under setting [1], half-maximal inhibition (IC50) required 2000 nM.

On to `N=C(N)c1ccc(CCCCC(=O)N[C@@H]2COC(=O)C2)cc1` [Example 1, 4-(Aminoiminomethyl)-N-(5-oxo-3S-furanyl)benzenepentanamide], for which the “% Inhibition” value worked out at 44%. Consider `N=C(N)c1ccc(CCCCC(=O)N[C@H]2CC(=O)OC2c2ccccc2)cc1` (single isomer, unassigned; diastereomer a) [Example 4], for which inhibition was half-maximal at 680 nM (IC50) and the “% Inhibition” value was found to be 100%. Take `COc1ccc2c(c1)OC(=O)CC2NC(=O)CCCCc1ccc(C(=N)N)cc1` (racemic) [Example 3, (±)-4-(Aminoiminomethyl)-N-(3,4-dihydro-7-methoxy-2-oxo-2H-1-benzopyran-4-yl)benzenepentanamide]: the “% Inhibition” value worked out at 96%. Further, the midpoint of inhibition under setting [1], the IC50, lay at 1100 nM. In turn, `N=C(N)c1ccc(CCCCC(=O)NC2CC(=O)OC2c2nccs2)cc1` (single isomer, unassigned; diastereoisomer b) [Example 8, 4-(aminoiminomethyl)-N-[tetrahydro-5-oxo-2-(2-thiazolyl)-3S-furanyl]benzene pentanamide, trifluoroacetate. (diastereoisomer B)] gave an IC50 of over 10000 nM.

Consider `N=C(N)c1ccc(CCCCC(=O)N[C@H]2CC(=O)OC2c2ccccc2)cc1` (single isomer, unassigned; diastereoisomer b) [Example 5, 4-(aminoiminomethyl)-N-(tetrahydro-5-oxo-2-phenyl-3S-furanyl)benzenepentanamide, trifluoroacetate (diastereoisomer B)], for which the IC50 turned out to be 5100 nM.
